Measurements as given in patent US4596808A, “Pharmacologically active 3-substituted beta-carbolines useful as tranquilizers” (Schering Aktiengesellschaft, priority 1980, dated 1986).

Columns and labels:
benzodiazepine receptor [1] = test: Displacement of 3H-flunitrazepam from benzodiazepine receptors in vitro (IC50); type: binding; conditions: rat forebrain, 3H-flunitrazepam 1.0 nM, 0° C.
Description: For example, it is known that certain locations in the central nervous system of vertebrates have a high specific affinity for bonding 1,4 and 1,5-benzodiazepines. (See, e.g., R. F. Squires & C. Braestrup, Nature [London] 266 [1977], 734, which is incorporated by reference herein). These locations are called benzodiazepine receptors.
This displacement activity of the compounds of this invention has been determined by measuring IC50 and ED50 values. The IC50 value is the concentration which causes a 50% displacement of the specific binding of ^3 H-flunitrazepam (1.0 nM, 0° C.) in samples with a total volume of 0.55 ml of a suspension of brain membrane, e.g., from rats.
The displacement test is carried out as follows:
0.5 ml of a suspension of untreated rat forebrain in 25 mM KH2 PO4, at a pH of 7.1 (5-10 mg of tissue per sample) were incubated with ^3 H-diazepam (specific activity 14.4 Ci/millimole, 1.9 nM) or ^3 H-flunitrazepam (specific activity 87 Ci/millimole, 1.0 nM) for 40-60 minutes at 0° C. After incubation, the suspension is filtered through a glass frit, the residue is washed twice with a cold buffer solution and the radioactivity is measured by scintillation counting.
The test is then repeated, except prior to addition of the radioactively marked benzodiazepine, a given amount or an excess amount of the compound whose displacement activity is to be ascertained, is added. The IC50 value can then be computed from the test results obtained.

benzodiazepine receptor [2] = test: In vivo inhibition of 3H-flunitrazepam binding to the benzodiazepine receptor in living brain (ED50); conditions: mice, subcutaneous, 3H-flunitrazepam i.v. 15 min later

Row | SMILES | In vitro IC50, inhibition of 3H flunitrazepam binding (Affinity for the benzodiazepine receptor) (benzodiazepine receptor [1]) [µg/mL] | In vivo ED50, inhibition of 3H flunitrazepam binding (Affinity for the benzodiazepine receptor) (benzodiazepine receptor [2]) [mg/kg]
1 | CCCCC(=NO)c1cc2c(cn1)[nH]c1ccccc12 | 0.468 | > 250
2 | CN(C)C=NC(=O)c1cc2c(cn1)[nH]c1ccccc12 | 0.09 | > 250
3 | c1ccc2c(c1)[nH]c1cnc(-c3nc[nH]n3)cc12 | 0.104 | 26
4 | CONC=NC(=O)c1cc2c(cn1)[nH]c1ccccc12 | 0.1 | > 250
5 | Cn1cnc(-c2cc3c(cn2)[nH]c2ccccc23)n1 | > 0.4 | 145
6 | Cc1nc(-c2cc3c(cn2)[nH]c2ccccc23)n(C)n1 | 0.179 | > 300
7 | Cc1n[nH]c(-c2cc3c(cn2)[nH]c2ccccc23)n1 | 0.096 | 139
8 | Cc1noc(-c2cc3c(cn2)[nH]c2ccccc23)n1 | 0.00056 | 15
9 | O=C1CC(c2cc3c(cn2)[nH]c2ccccc23)=NN1 | > 0.1 | > 250
10 | CN1N=C(c2cc3c(cn2)[nH]c2ccccc23)CC1=O | > 0.4 | > 250
11 | O=C1CC(c2cc3c(cn2)[nH]c2ccccc23)=NO1 | 0.156 | 100
12 | C(=Nn1cnnc1)c1cc2c(cn1)[nH]c1ccccc12 | > 0.1 | > 250
13 | CN1CCN(N=Cc2cc3c(cn2)[nH]c2ccccc23)CC1 | 0.1 | 210
14 | C(=NNc1ccccc1)c1cc2c(cn1)[nH]c1ccccc12 [CHNNHC6 H5, beta-carboline-3-carboxaldehyde-phenylhydrazone] |  | > 250
15 | CNN=Cc1cc2c(cn1)[nH]c1ccccc12 [CHNNHCH3, beta-carboline-3-carboxaldehyde-methylhydrazone] | 0.149 | 92
16 | NC(=O)NN=Cc1cc2c(cn1)[nH]c1ccccc12 [CHNNHCONH2, beta-carboline-3-carboxaldehyde-semicarbazone] | > 0.1 | > 250
17 | C(=NOCc1ccccc1)c1cc2c(cn1)[nH]c1ccccc12 [CHNOCH2 C6 H5, beta-carboline-3-carboxaldehyde-oxime-benzylether] | 0.0525 | > 250
18 | CCOC(=O)CC(=O)c1cc2c(cn1)[nH]c1ccccc12 [COCH2 COOC2 H5, 3-carboethoxy-acetyl-beta-carboline] |  | > 250
19 | O=C(N=CNO)c1cc2c(cn1)[nH]c1ccccc12 [CONCHNHOH, N-[(hydroxyamino)methylene]-beta-carboline-carboxamide] |  | 93
